Data as given in US11344537B2 (BIOVERSYS AG, priority 2019, dated 2022).
Values after ≈ are worked out from the molar mass of the structure shown. Where two headings read alike, the source gives them in different places.

Experiments:
[1] = HIV-infected patients, 300 mg/day (Hafner et al, 1998); cited from earlier work
[2] = in Ethanol (literature data); cited from earlier work
[3] = Preliminary assessment of solubility in solvents (24 h); type: physicochemical; details: thermodynamic from solid, 24 h stirring at room temperature, read-out: Solubility (mg/ml) at 24 h
Procedure: After 24 h stirring at room temperature, samples were centrifuged, and the supernatant analyzed by HPLC.

[4] = human, in vivo, cited from earlier work
[5] = Dissolution of rifabutin in DMI or DMI/water with acid and dilution with aqueous solutions; type: physicochemical; details: in DMI without water or acid; longer than plausibly acceptable

For `CO[C@H]1/C=C/O[C@@]2(C)Oc3c(C)c(O)c4c(c3C2=O)C2=NC3(CCN(CC(C)C)CC3)NC2=C(NC(=O)/C(C)=C\C=C\[C@H](C)[C@H](O)[C@@H](C)[C@@H](O)[C@@H](C)[C@H](OC(C)=O)[C@@H]1C)C4=O` [rifabutin], the “AUC at steady state” value [1] is listed as 8600 ± 8200 ng·h/mL, the “Cmax at steady state” value [1] is listed as 590 ± 330 ng/mL and the “Solubility (mg/ml) at 24 h” value [2] is listed as 30 mg/mL (≈ 35400 µM). It also gave a solubility at 24 h ([3]; aqueous buffer, in Acetate buffer pH 4 (USP)) of 11.3 mg/mL (≈ 13300 µM), a solubility at 24 h ([3]; aqueous buffer, in Borate buffer pH 10 (USP)) of 1.9 mg/mL (≈ 2240 µM) and a solubility at 24 h ([3]; aqueous buffer, in Phosphate buffer pH 6 (USP)) of 0.3 mg/mL (≈ 354 µM). For the same compound, the solubility at 24 h ([3]; aqueous buffer, in Phosphate buffer pH 8 (USP)) was 0.2 mg/mL (≈ 236 µM), the solubility at 24 h ([3]; aqueous with cosolvent or surfactant or cyclodextrin, in Povidone K12 (5% w/w in water)) was 0.5 mg/mL (≈ 590 µM) and the solubility at 24 h ([3]; aqueous with cosolvent or surfactant or cyclodextrin, in Tween 80 (1% w/w in water)) was 1.3 mg/mL (≈ 1530 µM). For the same compound, the solubility at 24 h ([3]; organic solvent or mixture, in Dimethyl isosorbide (DMI)) was ≥ 245 mg/mL, the solubility at 24 h ([3]; organic solvent or mixture, in Dimethylacetamide (DMA)) was ≥ 204 mg/mL and the solubility at 24 h ([3]; organic solvent or mixture, in Glycerol) was 0.4 mg/mL (≈ 472 µM). The solubility at 24 h ([3]; organic solvent or mixture, in N-Methyl-2-pyrrolidone (NMP)) was ≥ 190 mg/mL, the solubility at 24 h ([3]; organic solvent or mixture, in Polyethylene glycol 400 (PEG400)) was ≥ 110 mg/mL and the solubility at 24 h ([3]; organic solvent or mixture, in Propylene glycol) was ≥ 92 mg/mL. The solubility at 24 h ([3]; organic solvent or mixture, in Transcutol HP) was ≥ 206 mg/mL, the solubility at 24 h ([3]; saline or isotonic, in Saline 0.9%) was 0.3 mg/mL (≈ 354 µM) and the “time at which Cmax is attained after oral administration” value ([4]; 300 mg) was “approximately 3 hours”. For the same compound, the “mean Cmax” value ([4]; po, 300 mg) was 375 ng/mL, the Cmax ([4]; po, 600 mg) was 400 to 700 ng/mL and the oral dose absorbed [4] was “at least 53%”. The “Dissolution of rifabutin in DMI, concentration” value [5] was > 250 mg/mL.
